Patent publication US20260193219A1, “TRIAZINE DERIVATIVES FOR TREATING DISEASES RELATING TO NEUROTROPHINS” (AlzeCure Pharma AB, priority 2020, published 2026)

What was measured:
[1] = target: T1, TrkA (Homo sapiens, UniProt P04629); test: In vitro Trk receptor modulation assay (Enzyme Fragment Complementation), U2OS cells over-expressing TrkA; format: cell-based; details: compound pre-mixed with ligand (NGF), final 10 ng/mL, 3 hours, modulator mode
T1 construct: expressed in transfected cells; host or cells: U2OS
Description: (§1) A high throughput cell-based screen was used to identify positive modulators of TrkA and TrkB. The screen involves the use of cell-based assay overexpressing TrkA, or TrkB. The purpose of the assay is to identify compounds that modulate neurotrophin signalling (Forsell et al 2012). The assay can be used in inhibitor mode using a high concentration of ligand, in modulator mode using an intermediate concentration and in agonist mode using a low concentration of ligand.
(§2) The assay uses Enzyme Fragment Complementation (EFC) technique, which is a proximity-based assay. Briefly, cells used in this assay over-express two fusion proteins, i.e. the receptor, which can be one of TrkA or TrkB fused to a small peptide of beta-galactosidase and an adaptor protein, i.e. SHC1 (or any other Trk-adaptor protein) fused to the major part of beta-galactosidase. […] The proximity between the small activating peptide on the receptor and the major part of beta-galactosidase on the adaptor protein leads to an active beta-galactosidase enzyme. The activation of the receptor is quantified by measuring the amount of active beta-galactosidase by its conversion of a non-luminescent substrate into a luminescent product.
(§3) U2OS-cells, over-expressing TrkA or TrkB, were plated in 96- or 384-well plates and incubated overnight. On the following day, test compound was pre-mixed with ligand (NGF) and the ligand-compound mixture is then added to the cells to yield a final ligand concentration of 10 ng/mL. After 3 hours of incubation at room temperature, the incubation is stopped by the addition of a beta-galactosidase substrate mixture containing detergents. The substrate mixture is incubated for 60 minutes at ambient temperature. The luminescence is thereafter read by the use of a plate reader.

[2] = target: T2, TrkB (Homo sapiens, UniProt Q16620); test: In vitro Trk receptor modulation assay (Enzyme Fragment Complementation), U2OS cells over-expressing TrkB; format: cell-based; details: compound pre-mixed with ligand (NGF), final 10 ng/mL, 3 hours, modulator mode
T2 construct: expressed in transfected cells; host or cells: U2OS
Description: as §1, §2, §3

[3] = Human liver microsomal stability; format: in vitro ADME; details: human liver microsomes 0.5 mg/mL, 3 μM compound, NADPH, 37° C.
Protocol: A 10 mM stock solution (in DMSO) was prepared for each compound. From the intermediate stock solution of 2 mM, a working solution of 0.5 mM was prepared by diluting the compound in Acetonitrile:water (50:50). The compound (1.8 μL of working solution) was spiked in 0.1 M potassium phosphate buffer (260.7 μL), pH 7.4 at a concentration of 3 μM (0.1% DMSO). Following this, human liver microsomes (pooled, Invitrogen, #HMMCPL) (7.5 μL; final protein conc. 0.5 mg/mL) were added. The aforementioned sample was incubated at 37° C. for 5 min. Subsequently, 30 μL of 10 mM NADPH prepared in 0.1 M potassium phosphate buffer was added (as a co-factor) to initiate the reaction. The samples were then incubated at 37° C. for 0, 20, 40, 60 and 120 min.
At each time point (0, 20, 40, 60 and 120 min), 40 μL of the samples were withdrawn and reactions were stopped using 360 μL chilled acetonitrile or methanol containing suitable internal standard (Carbamazepine). The samples were centrifuged and the supernatants was analyzed in duplicate by LC-MS/MS. The percent compound remaining at each time point was calculated with respect to that of the 0 min sample. Control samples were run without NADPH for initial and final time point and blank samples was prepared using DMSO (without the test compound).
For comparison, the experiment was also performed with known Trk receptor signalling modulator 1-methyl-3-[3-methyl-4-(4-trifluoromethanesulfonylphenoxy)phenyl]-1,3,5-triazinane-2,4,6-trione) (ponazuril). Ponazuril is metabolized very slowly in vivo and this prolonged exposure creates an increased risk of side effects if the compound is administered systemically. This causes significant challenges to the development of the compound as a systemic drug.

[4] = tested on: C57/Bl6 mice; test: Passive avoidance task in scopolamine-treated mice; format: in vivo; details: mice treated with scopolamine 0.3 mg/kg s.c.; compound single s.c. administration 60 min prior to training, different doses
Protocol: The passive avoidance (PA) is an aversive learning task based on classical (Pavlovian) fear conditioning that allows for analysis of both facilitation and impairment of memory function by adjusting the unconditioned stimulus, i.e. the electrical foot shock. Commonly a cognitive-impairing agent is administered to the animals to mimic the neurochemical disturbances present in various cognitive disorders e.g. cholinergic (scopolamine) and glutamatergic (MK-801) deficits.
Prior to testing, the animals are brought to the experimental room where they were allowed to habituate for 60 min. The test is conducted using a modified shuttle box with two communicating compartments of equal size with a small sliding door built into the separating wall and a stainless-steel bar floor. One of the compartments is not illuminated and thus black whereas the other compartment (the light one) is illuminated by an electric bulb, installed on the top of a plexiglass cover. The PA training is conducted in a single session. […] Latency to cross over into the dark compartment (training latency) is recorded. […] The latency to cross over into the dark compartment with all four feet is measured (retention latency) as well as time in bright compartment and a number of other relevant parameters (e.g. number of visits in the dark compartment). […]

[5] = tested on: C57/B16 mice; test: Forced Swim Test; format: in vivo; details: 1 mg/kg single s.c. administration 30 min prior to FST on day 2
Protocol: The Forced Swim Test (FST) is a commonly used test in rodents to assess depression-like behaviour (Porsolt et al., Nature, 1977, 266, 730-732). The model measures a learned helplessness response and has shown to have predictive validity for clinical antidepressants, e.g. SSRIs.
The mouse version consists of a vertical glass cylinder (25 cm high, 13 cm in diameter) filled with tap water up to 16 cm in height (25±0.5° C.). This means that the animal cannot escape (climb out) nor stand on its tail or hindlimbs. After a certain time the animal realize that it cannot get out and will stop struggling to get out, and instead become immobile and float.
The animal is placed inside the cylinder and allowed two swimming sessions: a 10 min pre-test (on day 1), 24 h later (day 2) a second 6 min test is conducted. The total duration of immobility and latency to the first immobility are recorded during the second 6 min test. Immobility is defined as floating passively in an upright position in the water, with only small movements necessary to keep the head above the water surface. Animals are then gently removed from water and dried.
Vehicle (20% DMSO in 0.1M PBS) or 1 mg/kg of the compound of Example 1 were administered to C57/B16 mice as a single s.c. administration 30 min prior to FST on day 2. As comparator, fluoxetine is commonly used a dose of 20 mg/kg. […]

T2 sequence (Q16620 32-822): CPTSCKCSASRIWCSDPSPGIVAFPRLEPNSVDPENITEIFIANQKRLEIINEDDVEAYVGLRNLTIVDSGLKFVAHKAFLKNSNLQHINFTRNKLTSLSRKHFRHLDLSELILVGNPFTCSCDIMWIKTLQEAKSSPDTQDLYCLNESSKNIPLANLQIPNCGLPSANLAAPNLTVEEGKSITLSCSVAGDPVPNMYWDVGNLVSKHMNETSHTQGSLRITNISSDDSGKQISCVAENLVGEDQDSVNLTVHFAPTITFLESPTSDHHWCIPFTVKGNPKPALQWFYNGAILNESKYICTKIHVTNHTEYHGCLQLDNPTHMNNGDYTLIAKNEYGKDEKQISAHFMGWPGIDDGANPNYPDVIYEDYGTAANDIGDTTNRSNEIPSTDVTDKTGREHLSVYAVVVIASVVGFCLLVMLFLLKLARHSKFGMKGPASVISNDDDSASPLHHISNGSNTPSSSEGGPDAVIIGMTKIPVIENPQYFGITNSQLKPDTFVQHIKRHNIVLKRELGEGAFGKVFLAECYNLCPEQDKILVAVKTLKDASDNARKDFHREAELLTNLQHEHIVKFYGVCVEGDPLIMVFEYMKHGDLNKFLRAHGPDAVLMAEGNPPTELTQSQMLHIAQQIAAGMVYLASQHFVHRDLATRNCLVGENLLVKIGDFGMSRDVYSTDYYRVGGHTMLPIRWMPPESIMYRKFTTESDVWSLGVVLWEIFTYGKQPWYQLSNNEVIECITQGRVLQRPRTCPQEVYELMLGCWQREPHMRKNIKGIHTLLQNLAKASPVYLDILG
T1 sequence (P04629 33-796): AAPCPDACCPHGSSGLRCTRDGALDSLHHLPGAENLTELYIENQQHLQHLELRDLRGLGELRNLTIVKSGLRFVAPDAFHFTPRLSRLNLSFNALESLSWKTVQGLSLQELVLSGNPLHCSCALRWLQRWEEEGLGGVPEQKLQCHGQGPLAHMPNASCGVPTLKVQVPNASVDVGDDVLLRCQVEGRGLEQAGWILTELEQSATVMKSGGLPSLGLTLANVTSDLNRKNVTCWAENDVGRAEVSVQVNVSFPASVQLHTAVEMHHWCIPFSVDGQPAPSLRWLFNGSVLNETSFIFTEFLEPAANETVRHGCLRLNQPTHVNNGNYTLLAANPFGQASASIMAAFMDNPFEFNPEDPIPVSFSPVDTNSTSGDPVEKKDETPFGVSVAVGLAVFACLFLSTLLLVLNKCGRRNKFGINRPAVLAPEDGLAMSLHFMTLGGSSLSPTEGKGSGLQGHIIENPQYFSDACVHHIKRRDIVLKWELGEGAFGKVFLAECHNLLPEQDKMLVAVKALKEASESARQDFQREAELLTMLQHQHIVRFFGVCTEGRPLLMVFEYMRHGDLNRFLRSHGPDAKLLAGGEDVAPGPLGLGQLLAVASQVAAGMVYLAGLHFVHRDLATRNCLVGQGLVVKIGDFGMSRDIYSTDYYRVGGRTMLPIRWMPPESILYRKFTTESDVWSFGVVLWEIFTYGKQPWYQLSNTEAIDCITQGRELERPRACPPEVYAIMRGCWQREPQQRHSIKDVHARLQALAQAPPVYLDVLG

Cc1cccc(-n2c(=O)[nH]c(=O)n(-c3ccc(Oc4ccccc4)c(C)c3)c2=O)c1 [Example 1, 1-(3-methyl-4-phenoxyphenyl)-3-(3-methylphenyl)-1,3,5-triazinane-2,4,6-trione]
EC50 [1]: 120 nM
EC50 [2]: 150 nM
% of parent compound metabolized after 120 min [3]: 26.8%
cognitive function, retention latency within the bright area (passive avoidance) [4]: improves cognitive function
time spent immobile (Forced Swim Test) compared to vehicle control [5]: decreased time spent immobile
